{
  "source": "patent US6635245B1",
  "about": "“Strain of bacillus for controlling plant diseases” (priority 1999, dated 2003)",
  "assay_type_in_all_cases": "in vivo",
  "key": {"[1]": {"tested_on": "Bremia lactucae", "experiment": "Plant test, downy mildew of lettuce (chemically-resistant strain)", "conditions": "lettuce seedlings, 0 to 5 scale"}, "[2]": {"tested_on": "Peronospora parasitica", "experiment": "Plant test, downy mildew of Brassica", "conditions": "Brassica seedlings, 0 to 5 scale"}, "[3]": {"tested_on": "Uromyces phaseoli", "experiment": "Plant test, bean rust on snap bean", "conditions": "snap bean seedlings; 40 ppm; 0 to 5 scale"}, "[4]": {"tested_on": "Botrytis cinerea", "experiment": "B-30087 and B-21661 whole broths alone and together, gray mold on pepper", "conditions": "20 ppm, 0 to 5 scale", "description": "A strain of B. pumilus, NRRL B-30087 was tested with B. subtilis, NRRL B-21661, to determine if the fungicidal effect was greater if used together, than if each strain were used alone. Each strain was grown in a 10 liter or 5,000 liter fermenter, in a soy flour-based medium for approximately 50 hours. Each strain was tested as a whole broth culture against Botrytis cinerea gray mold on pepper, and Peronospora parasitica downy mildew on Brassica. The whole broths were tested at 1X, 1/2X and 1/8X. The two strains were then tested in various combinations with each other at 1/2X, 1/4X and 1/8X. A water check (control) and a chemical fungicide (BREAK® at 20 ppm) were also tested for comparison."}, "[5]": {"tested_on": "Phytophthora infestans", "conditions": "tomato seedlings, 0-5 scale"}, "[6]": {"tested_on": "Uncinula necator", "experiment": "Plant test, grape powdery mildew", "conditions": "grape seedlings (Chardonnay); 25 ppm; 0 to 5 scale", "description": "Grape seedlings (Chardonnay) were grown in two inch pots until the 6-9 true leaf stage. The culture of powdery mildew was maintained on grape seedlings at 22-26° C. under a 14 hour photoperiod. All but the youngest 2-4 leaves are removed. The NRRL Accession No. B-30087, the chemical fungicide (Rally®, myclobutanil at 25 ppm) and the water check are applied to runoff as above for the other pathogens tested. Four to five replications are used for each treatment. To inoculate with powdery mildew, leaves with mildew on maintenance seedlings are removed with scissors and each plant is inoculated individually. The surface of the maintenance seedling is gently brushed with a paintbrush so that spores are deposited onto the upper surface of the test plants. The procedure is performed using a 3× lighted magnification lens to assure all plants are getting equivalent inoculum. Flats with pots are placed in the dark for 16-24 hours at 20-24° C. Flats are kept at 22-26° C. with a 14 hour photoperiod for an additional 9-11 days until the test is read. […] The result using NRRL Accession No. B-30087 is shown below in Table 5."}},
  "note": "Read-outs that look alike come from different tables or passages of the source.",
  "data": [
    {"compound": "CCO[PH](=O)O", "note": "[Aliette, fosetyl-al]", "values": [
      {"measurement": "Score Rep 1", "setting": "[1]; 240 ppm", "value": 5.0},
      {"measurement": "Score Rep 2", "setting": "[1]; 240 ppm", "value": 3.0},
      {"measurement": "Score Rep 1", "setting": "[2]; 240 ppm", "value": 5.0},
      {"measurement": "Score Rep 2", "setting": "[2]; 240 ppm", "value": 3.0}
    ]},
    {"compound": "CCCC1COC(Cn2cncn2)(c2ccc(Cl)cc2Cl)O1", "note": "(stereo not drawn) [Break ®, propiconazole]", "values": [
      {"measurement": "Score Rep 1", "setting": "[3]", "value": 0.0},
      {"measurement": "Score Rep 2", "setting": "[3]", "value": 0.0},
      {"measurement": "Score Rep 3", "setting": "[3]", "value": 0.5},
      {"measurement": "Botrytis cinerea Average disease rating (4 plants)", "setting": "[4]", "value": 0.2}
    ]},
    {"compound": "CO/C=C(/C(=O)OC)c1ccccc1Oc1cc(Oc2ccccc2C#N)ncn1", "note": "[Quadris, azoxystrobin]", "values": [
      {"measurement": "Score Rep 1", "setting": "[5]; 62.5 ppm", "value": 0.0},
      {"measurement": "Score Rep 2", "setting": "[5]; 62.5 ppm", "value": 0.5},
      {"measurement": "Score Rep 3", "setting": "[5]; 62.5 ppm", "value": 0.0},
      {"measurement": "Score Rep 4", "setting": "[5]; 62.5 ppm", "value": 0.5},
      {"measurement": "Score Rep 5", "setting": "[5]; 62.5 ppm", "value": 0.0},
      {"measurement": "Score Rep 1", "setting": "[5]; 125 ppm", "value": 0.0},
      {"measurement": "Score Rep 2", "setting": "[5]; 125 ppm", "value": 0.0},
      {"measurement": "Score Rep 3", "setting": "[5]; 125 ppm", "value": 0.0},
      {"measurement": "Score Rep 4", "setting": "[5]; 125 ppm", "value": 0.0},
      {"measurement": "Score Rep 5", "setting": "[5]; 125 ppm", "value": 0.0}
    ]},
    {"compound": "CCCCC(C#N)(Cn1cncn1)c1ccc(Cl)cc1", "note": "(stereo not drawn) [Rally, myclobutanil]", "values": [
      {"measurement": "Score Rep 1", "setting": "[6]", "value": 0.0},
      {"measurement": "Score Rep 2", "setting": "[6]", "value": 0.0},
      {"measurement": "Score Rep 3", "setting": "[6]", "value": 0.0},
      {"measurement": "Score Rep 4", "setting": "[6]", "value": 0.0}
    ]},
    {"compound": "COCC(=O)N(c1c(C)cccc1C)C(C)C(=O)OC", "note": "(stereo not drawn) [Ridomil, metalaxyl]", "values": [
      {"measurement": "Score Rep 1", "setting": "[1]; 125 ppm", "value": 3.0},
      {"measurement": "Score Rep 2", "setting": "[1]; 125 ppm", "value": 3.0},
      {"measurement": "Score Rep 1", "setting": "[2]; 125 ppm", "value": 4.0},
      {"measurement": "Score Rep 2", "setting": "[2]; 125 ppm", "value": 4.0},
      {"measurement": "Score Rep 3", "setting": "[2]; 125 ppm", "value": 4.0}
    ]}
  ]
}
